Measured values reported in patent publication US7713969B2, “Compositions and methods for treatment of cancer” (ArQule, Inc., priority 2005, dated 2010).
pIC50: −log10 of the molar value.

Assays:
HT29 = experiment: Cell viability MTS assay; type: cell-based, human
How it was run: (§1)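 IC50 values reflect 50% loss of viable cells, measured as MTS absorbance at 490 nm. Compound was present for 72 hours, with a 4-hour MTS/PMS step ended by SDS.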

MDA-MB-231 = experiment: Cell viability MTS assay; type: cell-based, human
How it was run: as §1

NCI-H446 = experiment: Cell viability MTS assay; type: cell-based, human
How it was run: as §1

NCI-H69 = experiment: Cell viability MTS assay; type: cell-based, human
How it was run: as §1

NCI-H82 = experiment: Cell viability MTS assay; type: cell-based, human
How it was run: as §1

A549 = experiment: Cell viability MTS assay; type: cell-based, human; conditions: 72 hours with compound
How it was run: as §1

HCT-116 = experiment: Cell viability MTS assay; type: cell-based, human; conditions: 72 hours with compound
How it was run: as §1

K562 = experiment: Cell viability MTS assay; type: cell-based, human; conditions: 72 hours with compound
How it was run: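 72 h compound exposure, 0.33% DMSO final; MTS 2 gm/L + PMS 7.67 mg/L final, 4 h; SDS 1.4% final; A490. IC50 vs DMSO-only wells, non-linear regression.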

MCF7 = experiment: Cell viability MTS assay; type: cell-based, human; conditions: 72 hours with compound
How it was run: as §1

PC-3 = experiment: Cell viability MTS assay; type: cell-based, human; conditions: 72 hours with compound
How it was run: as §1

SK-MEL-28 = experiment: Cell viability MTS assay; type: cell-based, human; conditions: 72 hours with compound
How it was run: as §1

SKOV-3 = experiment: Cell viability MTS assay; type: cell-based, human; conditions: 72 hours with compound
How it was run: as §1

MDA-MB-231 cells = experiment: Colony counting, surviving fraction (Example 78); type: cell-based, human; conditions: two days incubation, colonies counted two weeks later; read-out: IC50 (surviving fraction equaled 50)
Procedure: MDA-MB-231 cells (ATCC# HTB-26), grown in DMEM plus 15% heat inactivated fetal bovine serum plus 10 mM HEPES pH 7.5, were plated in 60 mm plates (2×10^5 cells per plate). After two days candidate compounds in DMSO at various concentrations were diluted in media and added to individual plates such that the final DMSO concentration in the cell culture media was 0.1%. After two days incubation the culture was trypsinized, cells were washed with media, counted using a hemocytometer and 500 cells, including cell bodies, were plated in […] in media. Two weeks later the media was removed and the cell colonies were fixed with methanol for 10 minutes, stained with 1% crystal violet 10 minutes, washed with water and air dried. Cell colonies were visually counted when there were greater then 50 cells present per colony. Plating efficiency was defined as the average number of colonies formed divided by 500. The surviving fraction was defined as the plating efficiency of a candidate compound divided by the plating efficiency of DMSO multiplied by 100. For candidate compound titrations, the IC50 concentration was determined by fitting the equation y=AeBx to the data points and extrapolating the concentration where surviving fraction equaled 50. […]

[1] = Homo sapiens, HT-29, 72 hours with compound
[2] = Homo sapiens, MDA-MB-231, 72 hours with compound
[3] = Homo sapiens, NCI-H446, 72 hours with compound
[4] = Homo sapiens, NCI-H82, 72 hours with compound

Compound | pIC50 (HT29; 72 hours with compound) | pIC50 (MDA-MB-231; 72 hours with compound) | pIC50 (NCI-H446; 72 hours with compound) | pIC50 (NCI-H69; 72 hours with compound) | pIC50 (NCI-H82; 72 hours with compound) | pIC50 (HT29; [1]) | pIC50 (MDA-MB-231; [2]) | melting point [°C] | also measured
O=C1NC(=O)[C@@H](c2cn3c4c(cccc24)CCC3)[C@@H]1c1cccs1 (racemic) [Example 47, (±)-Trans-3-(5,6-dihydro-4H-pyrrolo[3,2,1-ij]quinolin-1yl)-4-(2-thiophen-2-yl)pyrrolidine-2,5-dione] | 4.74 | 4.70 | 5.01 | 5.35 | 5.14 |  |  |  | 
Cn1cc([C@@H]2C(=O)NC(=O)[C@H]2c2cn3c4c(cccc24)CCC3)c2ccccc21 (racemic) [Example 51, (±)-Trans-3-(5,6-dihydro-4H-pyrrolo[3,2,1-ij]quinolin-1yl)-4-(N-methylindol-3-yl)pyrrolidine-2,5-dione] |  |  |  |  |  |  | 4.17 |  | pIC50 (NCI-H446; [3]): 4.18; pIC50 (NCI-H82; [4]): 4.42
O=C1NC(=O)[C@@H](c2cn3c4c(cccc24)CCC3)[C@H]1c1c[nH]c2ccccc12 [3(R),4(S)-3-(5,6-dihydro-4H-pyrrolo[3,2,1-ij]quinolin-1-yl)-4(1H-indol-3-yl)pyrrolidine-2,5-dione] | 5.26 | 5.43 | 5.90 | 5.73 | 5.83 |  |  |  | 
O=C1NC(=O)[C@@H](c2c[nH]c3ccccc23)[C@H]1c1cn2c3c(cccc13)CCC2 [3(S),4(R)-3-(5,6-dihydro-4H-pyrrolo[3,2,1-ij]quinolin-1-yl)-4(1H-indol-3-yl)pyrrolidine-2,5-dione] | 5.01 | 5.29 | 5.85 | 5.68 | 5.75 |  |  |  | 
O=C1NC(=O)[C@@H](c2cn3c4c(cccc24)CCC3)[C@@H]1c1c[nH]c2ccccc12 [(+)-3(S),4(R)-3-(5,6-dihydro-4H-pyrrolo[3,2,1-ij]quinolin-1-yl)-4(1H-indol-3-yl)pyrrolidine-2,5-dione] | 4.52 | 4.57 | 5.07 | 4.98 | 5.01 |  |  |  | pIC50 (A549): 4.55; pIC50 (HCT-116): 4.84; pIC50 (K562): 5.34; pIC50 (MCF7): < 4.00; pIC50 (PC-3): 4.73; pIC50 (SK-MEL-28): 4.59; pIC50 (SKOV-3): 5.35; pIC50 (MDA-MB-231 cells): 5.39
COc1cccc(C2=C(c3cn4c5c(cccc35)CCC4)C(=O)NC2=O)c1 [Example 65, 3-(5,6-dihydro-4H-pyrrolo[3,2,1-ij]quinolin-1-yl)-4-(3-methoxyphenyl)-1H-pyrrole-2,5-dione] |  |  |  |  |  | 4.46 | 4.22 | 99 to 101 | 
O=C1NC(=O)C(c2cn3c4c(cccc24)CCC3)=C1c1ccc(OCc2ccccc2)cc1 [Example 66, 3-[4-(benzyloxy)phenyl]-4-(5,6-dihydro-4H-pyrrolo[3,2,1-ij]quinolin-1-yl)-1H-pyrrole-2,5-dione] |  |  |  |  |  | < 4.00 | < 4.00 | 262 to 265 | 

Now from value to molecule, other results behind:

pIC50 (HT29; 72 hours with compound) | pIC50 (MDA-MB-231; 72 hours with compound) | pIC50 (NCI-H446; 72 hours with compound) | pIC50 (NCI-H69; 72 hours with compound) | pIC50 (NCI-H82; 72 hours with compound) | pIC50 (HT29; [1]) | pIC50 (MDA-MB-231; [2]) | melting point [°C] | Compound | also measured
 |  |  |  |  | 5.07 | 5.34 |  | O=C1NC(=O)[C@@H](c2cn3c4c(cccc24)CCC3)[C@@H]1c1ccccc1Cl (racemic) [Example 50, (±)-Trans-3-(5,6-dihydro-4H-pyrrolo[3,2,1-ij]quinolin-1yl)-4-(2-chlorophenyl)-pyrrolidine-2,5-dione] | pIC50 (NCI-H446; [3]): 5.37; pIC50 (NCI-H69; Homo sapiens, NCI-H69, 72 hours with compound): 5.27; pIC50 (NCI-H82; [4]): 5.33
 |  |  |  |  | 5.51 | 4.83 | 87 to 91 | COc1cccc([C@@H]2C(=O)NC(=O)[C@H]2c2cn3c4c(cccc24)CCC3)c1 (racemic) [Example 68, (±)-Trans-3-(5,6-dihydro-4H-pyrrolo[3,2,1-ij]quinolin-1-yl)-4-(3-methoxyphenyl)pyrrolidine-2,5-dione] | 
 |  |  |  |  | 4.26 | 4.18 | 108 to 110 | O=C1NC(=O)[C@@H](c2cn3c4c(cccc24)CCC3)[C@@H]1c1cccc(O)c1 (racemic) [Example 69, (±)-Trans-3-(5,6-dihydro-4H-pyrrolo[3,2,1-ij]quinolin-1-yl)-4-(3-hydroxyphenyl)pyrrolidine-2,5-dione] | 
 |  |  |  |  | < 4.00 | < 4.00 | 105 to 107 | O=C1NC(=O)[C@@H](c2cn3c4c(cccc24)CCC3)[C@@H]1c1ccc(O)cc1 (racemic) [Example 72, (±)-Trans-3-(5,6-dihydro-4H-pyrrolo[3,2,1-ij]quinolin-1-yl)-4-(4-hydroxyphenyl)pyrrolidine-2,5-dione] | 
